For series [1], the system named is RAW264.7. Description: Antiinflammatory activity in mouse RAW264.7 cells assessed as inhibition of LPS-induced NO production after 24 hrs by Griess assay. Particulars: RAW264.7, 24 h. In kind it is functional, cell-based. (In general: The Griess reaction detects nitrite, a stable product of nitric oxide.)
For series [2], the system named is RAW264.7. Kind of series: Cytotoxicity against mouse RAW264.7 cells after 24 hrs by MTT assay. In kind it is cell-based. Particulars: raw264.7, 24 h. On the technique in general: Tetrazolium dyes change colour on reduction, which living cells bring about.

Molecules are shown by their SMILES. Bounds are passed on as bounds.

For orientation: IC50 means the concentration that gives 50% inhibition. In the case of `O=c1cc(-c2ccc(O)cc2)oc2cc(O)ccc12`, in the series with RAW264.7 [1], the IC50 is above 50 µM. Moreover, in the series with RAW264.7 [2], the Activity entry was “Non-toxic”.

Take `CC(C)=CCc1cc([C@@H]2CC(=O)c3ccc(O)c(CC=C(C)C)c3O2)cc(CC=C(C)C)c1O`: the IC50 with RAW264.7 [1] amounted to 28.1 µM. Moreover, the Activity entry in the series with RAW264.7 [2] is “Non-toxic”.

As for `C/C=C/C(=O)OC[C@H]1O[C@@H](Oc2ccc3c(c2)OC[C@H]2c4cc5c(cc4O[C@@H]32)OCO5)[C@H](O)[C@@H](O)[C@@H]1O`, in the series with RAW264.7 [1], the IC50 was found to be 33 µM. Besides, the Activity entry in the series with RAW264.7 [2] is given as “Non-toxic”.

As to `CC(C)=CCc1cc([C@@H]2CC(=O)c3ccc(O)c(CC=C(C)C)c3O2)cc2c1OC(C)(C)C=C2`, in the series with RAW264.7 [1], the IC50 turned out to be 13.6 µM. Moreover, in the series on RAW264.7 [2], the Activity entry is “Non-toxic”.

Turning to `COc1cc([C@@H]2OC[C@@H]3[C@H]2CO[C@H]3c2ccc(O)c(OC)c2)ccc1O` [(+)-PINORESINOL], the IC50 in the series on RAW264.7 [1] amounted to 45.1 µM. Moreover, the Activity result in the series on RAW264.7 [2] was “Non-toxic”.

As to `COc1ccc(-c2coc3cc(O)ccc3c2=O)cc1O` [CALYCOSIN], in the series on RAW264.7 [1], the IC50 is above 50 µM. Further, the Activity entry with RAW264.7 [2] was “Non-toxic”.

Take `O=c1c(-c2ccc(O)cc2)coc2cc(O)cc(O)c12` [GENISTEIN]: in the series with RAW264.7 [1], the 50% inhibitory concentration (IC50) was above 50 µM. Moreover, in the series with RAW264.7 [2], the Activity result was “Non-toxic”.

Consider `Oc1ccc2c(c1)OC[C@H]1c3cc4c(cc3O[C@@H]21)OCO4` [MAACKIAIN], for which the half-maximal inhibitory concentration (IC50) in the series with RAW264.7 [1] amounted to 27 µM. Besides, the Activity entry in the series on RAW264.7 [2] is on record as “Non-toxic”.

For the compound `COc1cc([C@H]2OC[C@@H]3C(c4cc(OC)c(O)c(OC)c4)OC[C@H]23)ccc1O` (some centres not stated) [MEDIORESINOL], the IC50 in the series on RAW264.7 [1] amounted to 41 µM. Also, the Activity result with RAW264.7 [2] is given as “Non-toxic”.

On to `N=C(N)NN` [PIMAGEDINE], for which the IC50 in the series with RAW264.7 [1] was found to be 18.7 µM. Besides, in the series with RAW264.7 [2], the Activity result is “Non-toxic”.

With `COc1cc([C@H]2OC[C@H]3[C@@H]2CO[C@@H]3c2cc(OC)c(O)c(OC)c2)cc(OC)c1O` [SYRINGARESINOL], the IC50 with RAW264.7 [1] is above 50 µM. In the series with RAW264.7 [2], the Activity result is “Non-toxic”.

(Values after ChEMBL document CHEMBL3393031, “Inhibitory constituents of Sophora tonkinensis on nitric oxide production in RAW 264.7 macrophages” (Bioorg Med Chem Lett, 2015).)
